From US8609666B2, “2-morpholino-pyrido[3,2-D]pyrimidines” (Merck Serono SA, priority 2009, dated 2013)
pIC50: −log10 of the molar value.

Each compound was assayed on Human recombinant GST-PI3K (assay: PI3K induced-lipid phosphorylation scintillation proximity assay (neomycin-coated SPA beads)). Conditions: amount necessary to achieve 50% inhibition of PI3K; 120 min at room temperature.
Format: biochemical
From the text: The efficacy of compounds of the invention in inhibiting the PI3K induced-lipid phosphorylation may be tested in the following binding assay. The assay combines the scintillation proximity assay technology (SPA, Amersham) with the capacity of neomycin (a polycationic antibiotic) to bind phospholipids with high affinity and specificity. The Scintillation Proximity Assay is based on the properties of weakly emitting isotopes (such as ^3H, ^125I, ^33P). Coating SPA beads with neomycin allows the detection of phosphorylated lipid substrates after incubation with recombinant PI3K and radioactive ATP in the same well, by capturing the radioactive phospholipids to the SPA beads through their specific binding to neomycin. To a 96 wells MTP containing 10 μl of the test compound of Formula (I) (solubilized in 10% DMSO; to yield a concentration of 100, 25, 5.0, 1.25, 0.312, 0.078, 0.0195, 0.00488, 0.00122 and 0.0003 μM of the test compound), the following assay components are added: 1) 10 μL of lipid micelles 2) […] of Kinase buffer ([^33P]γATP162 μM/300 nCi, MgCl2 2.5 mM, DTT 2.5 mM, Na3VO4 25 μM in Hepes 40 mM, pH 7.4) and 3) 10 μL (100 ng) of Human recombinant GST-PI3K (in Hepes 40 mM, pH 7.4, ethylenglycol 4%). After incubation at room temperature for 120 minutes, with gentle agitation, the reaction is stopped by addition of 200 μL of a solution containing 250 μg of neomycin-coated PVT SPA beads, ATP 60 mM and EDTA 6.2 mM in PBS. The assay is further incubated at room temperature for 60 minutes with gentle agitation to allow binding of phospholipids to neomycin-SPA beads. After precipitation of the neomycin-coated PVT SPA beads for 5 minutes at 1500×g, radioactive PtdIns(3)P is quantified by scintillation counting in a Wallac MicroBeta™ plate counter. The values indicated in Table I below refer to the IC50 (μM) with respect to PI3K, i.e. the amount necessary to achieve 50% inhibition of said target. Said values show a considerable inhibitory potency of pyridopyrimidine compounds with regard to PI3K.

How did the pIC50 turn out when O=C(O)c1cc(NCCO)c2nc(N3CCOCC3)nc(-c3ccc(O)cc3)c2n1 [Example 7, 8-(2-Hydroxy-ethylamino)-4-(4-hydroxy-phenyl)-2-morpholin-4-yl-pyrido[3,2-d]pyrimidine-6-carboxylic acid] was run?
Its pIC50 is 6.14.

How did the pIC50 turn out when COCCN(C)c1cc(C(=O)O)nc2c(-c3cc(O)cc(F)c3)nc(N3CCOCC3)nc12 [Example 14, 4-(3-Fluoro-5-hydroxy-phenyl)-8-[(2-methoxy-ethyl)-methyl-amino]-2-morpholin-4-yl-pyrido[3,2-d]pyrimidine-6-carboxylic acid] was run?
Its pIC50 is 7.72.

CN(C)c1cc(C(=O)O)nc2c(-c3ccc(F)cc3O)nc(N3CCOCC3)nc12 [Example 52, 8-(Dimethylamino)-4-(4-fluoro-2-hydroxyphenyl)-2-morpholin-4-ylpyrido[3,2-d]pyrimidine-6-carboxylic acid] was tested. Which pIC50 did it give?
Its pIC50 is 7.08.

CN(C)c1cc(C(=O)O)nc2c(-c3ccccc3O)nc(N3CCOCC3)nc12 [Example 42, 8-(Dimethylamino)-4-(2-hydroxyphenyl)-2-morpholin-4-ylpyrido[3,2-d]pyrimidine-6-carboxylic acid] was tested. Which pIC50 did it give?
Its pIC50 is 7.64.

CN(C)c1cc(C(=O)O)nc2c(-c3cccc(C#N)c3)nc(N3CCOCC3)nc12 [Example 66, 4-(3-Cyanophenyl)-8-(dimethylamino)-2-morpholin-4-ylpyrido[3,2-d]pyrimidine-6-carboxylic acid] was tested. Which pIC50 did it give?
The pIC50 was 5.96.

COc1ccccc1-c1cc(C(=O)O)nc2c(-c3cccc(O)c3)nc(N3CCOCC3)nc12 [Example 13, 4-(3-hydroxyphenyl)-8-(2-methoxyphenyl)-2-morpholin-4-ylpyrido[3,2-d]pyrimidine-6-carboxylic acid] was tested. Which pIC50 did it give?
The pIC50 was 7.62.

COCCN(C)c1cc(C(=O)O)nc2c(-c3ccc(O)cc3)nc(N3CCOCC3)nc12 [Example 3, 4-(4-hydroxy-phenyl)-8-[(2-methoxy-ethyl)-methyl-amino]-2-morpholin-4-yl-pyrido[3,2-d]pyrimidine-6-carboxylic acid] was tested. Which pIC50 did it give?
The pIC50 was 6.54.

With O=C(O)c1ccc2nc(N3CCOCC3)nc(-c3ccc(O)cc3)c2n1 [Example 8, 4-(4-Hydroxy-phenyl)-2-morpholin-4-yl-pyrido[3,2-d]pyrimidine-6-carboxylic acid] as the compound, how does the pIC50 read?
The pIC50 was 6.07.

CN(C)c1cc(C(=O)O)nc2c(-c3cc(F)ccc3O)nc(N3CCOCC3)nc12 [Example 29, 8-(Dimethylamino)-4-(5-fluoro-2-hydroxyphenyl)-2-morpholin-4-ylpyrido[3,2-d]pyrimidine-6-carboxylic acid] was tested. Which pIC50 did it give?
The pIC50 was 7.18.

How did the pIC50 turn out when COc1cccc(-c2nc(N3CCOCC3)nc3ccc(C(=O)O)nc23)c1 [Example 2, 4-(3-Methoxyphenyl)-2-morpholin-4-ylpyrido[3,2-d]pyrimidine-6-carboxylic acid] was run?
Its pIC50 is 5.35.

With O=C(O)c1cc(Cl)c2nc(N3CCOCC3)nc(-c3cccc(O)c3)c2n1 [Example 9, 8-Chloro-4-(3-hydroxyphenyl)-2-morpholin-4-ylpyrido[3,2-d]pyrimidine-6-carboxylic acid] as the compound, how does the pIC50 read?
The pIC50 was 6.97.

CNc1cc(C(=O)O)nc2c(-c3cccc(F)c3O)nc(N3CCOCC3)nc12 [Example 35, 4-(3-Fluoro-2-hydroxyphenyl)-8-(methylamino)-2-morpholin-4-ylpyrido[3,2-d]pyrimidine-6-carboxylic acid] was tested. Which pIC50 did it give?
Its pIC50 is 7.32.

How did the pIC50 turn out when CN(C)CCN(C)c1cc(C(=O)O)nc2c(-c3cc(F)ccc3O)nc(N3CCOCC3)nc12 [Example 32, 8-[[2-(Dimethylamino)ethyl](methyl)amino]-4-(5-fluoro-2-hydroxyphenyl)-2-morpholin-4-ylpyrido[3,2-d]pyrimidine-6-carboxylic acid] was run?
The pIC50 was 6.25.

COCCNc1cc(C(=O)O)nc2c(-c3cccc(COC)c3)nc(N3CCOCC3)nc12 [Example 26, 8-(2-Methoxy-ethylamino)-4-(3-methoxymethyl-phenyl)-2-morpholin-4-yl-pyrido[3,2-d]pyrimidine-6-carboxylic acid] was tested. Which pIC50 did it give?
The pIC50 was 5.74.

How did the pIC50 turn out when COCCN(C)c1cc(C(=O)O)nc2c(-c3cccc(F)c3O)nc(N3CCOCC3)nc12 [Example 33, 4-(3-Fluoro-2-hydroxyphenyl)-8-[(2-methoxyethyl)(methyl)amino]-2-morpholin-4-ylpyrido[3,2-d]pyrimidine-6-carboxylic acid] was run?
The pIC50 was 8.05.

O=C(O)c1cc(NCCO)c2nc(N3CCOCC3)nc(-c3ccccc3O)c2n1 [Example 44, 8-[(2-Hydroxyethyl)amino]-4-(2-hydroxyphenyl)-2-morpholin-4-ylpyrido[3,2-d]pyrimidine-6-carboxylic acid] was tested. Which pIC50 did it give?
The pIC50 was 7.09.

With COCCN(C)c1cc(C(=O)O)nc2c(-c3ccc4[nH]ccc4c3)nc(N3CCOCC3)nc12 [Example 21, 4-(1H-Indol-5-yl)-8-[(2-methoxy-ethyl)-methyl-amino]-2-morpholin-4-yl-pyrido[3,2-d]pyrimidine-6-carboxylic acid] as the compound, how does the pIC50 read?
The pIC50 was 6.77.

CS(=O)(=O)c1cc(C(=O)O)nc2c(-c3cc(F)ccc3O)nc(N3CCOCC3)nc12 [Example 55, 4-(5-Fluoro-2-hydroxyphenyl)-8-(methylsulfonyl)-2-morpholin-4-ylpyrido[3,2-d]pyrimidine-6-carboxylic acid] was tested. Which pIC50 did it give?
Its pIC50 is 6.86.

With CS(=O)(=O)c1cc(C(=O)O)nc2c(-c3cc(O)cc(F)c3)nc(N3CCOCC3)nc12 [Example 56, 4-(3-Fluoro-5-hydroxyphenyl)-8-(methylsulfonyl)-2-morpholin-4-ylpyrido[3,2-d]pyrimidine-6-carboxylic acid] as the compound, how does the pIC50 read?
Its pIC50 is 7.82.

With COCCNc1cc(C(=O)O)nc2c(-c3ccc(F)cc3O)nc(N3CCOCC3)nc12 [Example 54, 4-(4-Fluoro-2-hydroxyphenyl)-8-[(2-methoxyethyl)amino]-2-morpholin-4-ylpyrido[3,2-d]pyrimidine-6-carboxylic acid] as the compound, how does the pIC50 read?
The pIC50 was 7.05.

With Cc1cc(O)ccc1-c1nc(N2CCOCC2)nc2c(N(C)CCO)cc(C(=O)O)nc12 [Example 58, 8-[(2-Hydroxyethyl)(methyl)amino]-4-(4-hydroxy-2-methylphenyl)-2-morpholin-4-ylpyrido[3,2-d]pyrimidine-6-carboxylic acid] as the compound, how does the pIC50 read?
The pIC50 was 6.03.

How did the pIC50 turn out when COCCN(C)c1cc(C(=O)O)nc2c(-c3cccc(O)c3)nc(N3CCOCC3)nc12 [Example 10, 4-(3-Hydroxy-phenyl)-8-[(2-methoxy-ethyl)-methyl-amino]-2-morpholin-4-yl-pyrido[3,2-d]pyrimidine-6-carboxylic acid] was run?
Its pIC50 is 7.55.

With COCCN(C)c1cc(C(=O)O)nc2c(-c3ccc(CO)cc3)nc(N3CCOCC3)nc12 [Example 22, 4-(4-Hydroxymethyl-phenyl)-8-[(2-methoxy-ethyl)-methyl-amino]-2-morpholin-4-yl-pyrido[3,2-d]pyrimidine-6-carboxylic acid] as the compound, how does the pIC50 read?
Its pIC50 is 6.26.

CS(=O)(=O)c1cc(C(=O)O)nc2c(-c3ccc(O)c(F)c3)nc(N3CCOCC3)nc12 [Example 45, 4-(3-Fluoro-4-hydroxyphenyl)-8-(methylsulfonyl)-2-morpholin-4-ylpyrido[3,2-d]pyrimidine-6-carboxylic acid] was tested. Which pIC50 did it give?
The pIC50 was 6.47.

How did the pIC50 turn out when CS(=O)(=O)N1CCN(c2cc(C(=O)O)nc3c(-c4ccccc4)nc(N4CCOCC4)nc23)CC1 [Example 67, 8-[4-(Methylsulfonyl)piperazin-1-yl]-2-morpholin-4-yl-4-phenylpyrido[3,2-d]pyrimidine-6-carboxylic acid] was run?
The pIC50 was 7.52.

COCCN(C)c1cc(C(=O)O)nc2c(-c3cc(F)cc(F)c3)nc(N3CCOCC3)nc12 [Example 65, 4-(3,5-Difluorophenyl)-8-[(2-methoxyethyl)(methyl)amino]-2-morpholin-4-ylpyrido[3,2-d]pyrimidine-6-carboxylic acid] was tested. Which pIC50 did it give?
The pIC50 was 5.89.

How did the pIC50 turn out when O=C(O)c1cc(NCCO)c2nc(N3CCOCC3)nc(-c3cccc(CO)c3)c2n1 [Example 48, 8-[(2-Hydroxyethyl)amino]-4-[3-(hydroxymethyl)phenyl]-2-morpholin-4-ylpyrido[3,2-d]pyrimidine-6-carboxylic acid] was run?
Its pIC50 is 7.57.

COCCNc1cc(C(=O)O)nc2c(-c3cc(F)ccc3O)nc(N3CCOCC3)nc12 [Example 31, 4-(5-Fluoro-2-hydroxyphenyl)-8-[(2-methoxyethyl)amino]-2-morpholin-4-ylpyrido[3,2-d]pyrimidine-6-carboxylic acid] was tested. Which pIC50 did it give?
The pIC50 was 7.14.

COCc1cccc(-c2nc(N3CCOCC3)nc3c(N(C)C)cc(C(=O)O)nc23)c1 [Example 25, 8-Dimethylamino-4-(3-methoxymethyl-phenyl)-2-morpholin-4-yl-pyrido[3,2-d]pyrimidine-6-carboxylic acid] was tested. Which pIC50 did it give?
Its pIC50 is 5.30.

How did the pIC50 turn out when CN(CCO)c1cc(C(=O)O)nc2c(-c3cccc4[nH]ccc34)nc(N3CCOCC3)nc12 [Example 20, 8-[(2-Hydroxy-ethyl)-methyl-amino]-4-(1H-indol-4-yl)-2-morpholin-4-yl-pyrido[3,2-d]pyrimidine-6-carboxylic acid] was run?
Its pIC50 is 7.11.
